The values that follow come from patent publication US11040026B2, “Muscarinic M1 receptor positive allosteric modulators” (SUVEN LIFE SCIENCES LIMITED, priority 2016, dated 2021).

Molecules are shown by their SMILES.

A word on the EC50: it is the concentration needed to bring the measured effect to its halfway point. Usually AUC(0-t) stands for the area under the concentration-time curve up to a stated or last time point. A higher AUC(0-t) goes with more exposure. By clearance is commonly meant a measure of how efficiently the substance is removed, as volume per time. High values mean efficient removal, low ones inefficient removal. A word on the half-life: it is the time needed for the level to fall by half in the phase considered. Lower therefore signals fast loss. As usually defined, the Cmax is the peak of the concentration-time curve.

The subject of series [1] is Male Wistar rats. The experiment in a line: Object recognition task model. It counts as in vivo. The note with it: rat, 3 mg/kg, p.o. How it is done:
Object Recognition Task Model
Male Wistar rats (8-10 weeks old) were used as experimental animals. Four animals were housed in each cage. Animals were kept on 20% food deprivation from a day prior to experimentation. Water was provided ad libitum throughout the experiment. Animals were maintained on a 12 hours light/dark cycle in temperature and humidity controlled room. The experiment was carried out in an circular or square arena made up of acrylic. Rats were habituated to individual arenas for up to 1 hour in the absence of any objects on day 1.
One group of 12 rats received vehicle and another set of animals received test compounds, before familiar (T1) and choice (T2) trials. During the familiarization phase, (T1), the rats were placed individually in the arena for 3 minutes, in which two identical objects (a1 and a2) were positioned 10 cm from the wall. 24 hours after T1, trial for long-term memory test was performed. The same rats were placed in the same arena as they were placed in T1 trial. During the choice phase (T2) rats were allowed to explore the arena for 3 minutes in presence of a copy of familiar object (a3) and one novel object (b). During the T1 and T2 trial, explorations of each object (defined as sniffing, licking, chewing or having moving vibrissae whilst directing the nose towards the object at a distance of less than 1 cm) were recorded using stopwatch.
T1 is the total time spent exploring the familiar objects (a1+a2).
T2 is the total time spent exploring the familiar object and novel object (a3+b).
The object recognition test was performed as described in Behav. Brain Res., 1988, 31, 47-59.

The target of series [2] is T1, muscarinic M1 receptor (Homo sapiens, UniProt P11229).
T1 sequence (P11229 1-460): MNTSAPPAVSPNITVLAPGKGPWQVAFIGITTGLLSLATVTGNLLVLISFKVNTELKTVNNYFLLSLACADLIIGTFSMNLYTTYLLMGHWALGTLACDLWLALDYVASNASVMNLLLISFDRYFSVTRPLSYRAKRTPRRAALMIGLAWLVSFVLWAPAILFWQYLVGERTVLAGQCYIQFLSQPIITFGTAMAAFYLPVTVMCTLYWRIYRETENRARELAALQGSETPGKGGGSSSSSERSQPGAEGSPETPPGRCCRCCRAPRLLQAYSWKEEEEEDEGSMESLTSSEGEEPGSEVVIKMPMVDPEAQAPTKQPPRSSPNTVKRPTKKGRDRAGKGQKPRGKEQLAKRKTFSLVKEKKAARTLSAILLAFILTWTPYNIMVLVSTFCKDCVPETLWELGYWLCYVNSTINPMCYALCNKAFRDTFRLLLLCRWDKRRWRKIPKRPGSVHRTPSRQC
Put plainly: Allosteric potency EC50 for muscarinic M1 receptor (CHO pCRE-Luc reporter assay). It counts as cell-based. The conditions noted are these: in presence of EC20 of acetylcholine; CHO cells, luciferase reporter, 4 hours. Put shortly:
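Stable CHO line with recombinant human M1 and cAMP-response-element luciferase reporter, serum-starved overnight. Test compounds at increasing concentrations added with an EC20 of acetylcholine, 4 h at 37 °C; luminescence read after lysis. EC50 = concentration giving 50% stimulation of luciferase activity in the presence of EC20 acetylcholine.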

Series [3] has as its system Male Wistar rats. Put plainly: Object recognition task model (combination study). It counts as in vivo. The note with it: rat, combination (co-treatment) with donepezil; FIG. 1. Here is the method: Object Recognition Task Model (Combination Study)
The cognition enhancing properties of compounds of this invention were estimated by using this model.
Male Wistar rats (8-10 weeks old) were used as experimental animals. Four animals were housed in each cage. Animals were kept on 20% food deprivation from a day prior to experimentation. Water was provided ad libitum throughout the experiment. Animals were maintained on a 12 hours light/dark cycle in temperature and humidity controlled room. The experiment was carried out in an open field made up of acrylic. Rats were habituated to individual arenas (open field) for 20 minutes in the absence of any objects on day 1.
One group of 12 rats received vehicle and another set of animals received compound of the formula (I) or Donepezil or compound of formula (I) and Donepezil, before the familiar (T1) and choice (T2) trials. During the familiarization phase, (T1), the rats were placed individually in the arena for 3 minutes, in which two identical objects (a1 and a2) were positioned 10 cm from the wall. 24 hours after T1, trial for long-term memory test was performed. […] During the T1 and T2 trial, explorations of each object (defined as sniffing, licking, chewing or having moving vibrissae whilst directing the nose towards the object at a distance of less than 1 cm) were recorded using stopwatch. […]

A short description of series [4]: Rodent brain penetration study. The note with it: male, Wistar, brain and plasma, po; rat, 3 mg/kg, p.o., brain-plasma ratio; read-out: Single dose Rat Brain Penetration (Cb/Cp) at 3 mg/kg, p.o. Type of series: in vivo, Male Wistar rats. How it is done: Rodent Brain Penetration Study
Male Wistar rats (260±40 grams) were used as experimental animals. Three animals were housed in each cage. Animals were given water and food ad libitum throughout the experiment and maintained on a 12 hours light/dark cycle.
Brain penetration was determined in discrete manner in rats. One day prior to dosing day, male Wistar rats were acclimatized and randomly grouped according to their weight. At each time point (0.50, 1 and 2 hours) n=3 animals were used.
The test compounds were suitably preformulated and administered orally at (free base equivalent) 3 mg/kg. Blood samples were removed via cardiac puncture by using isoflurane anesthesia. The animals were sacrificed to collect brain tissue. Plasma was separated and brain samples were homogenized and stored frozen at −20° C. until analysis. The concentrations of the test compounds in plasma and brain were determined using LC-MS/MS method.
The test compounds were quantified in plasma and brain homogenate by qualified LC-MS/MS method using suitable extraction technique. The test compounds were quantified in the calibration range of 1-500 ng/mL in plasma and brain homogenate. Study samples were analyzed using calibration samples in the batch and quality control samples spread across the batch. Extent of brain-plasma ratio (Cb/Cp) was calculated

Series [5] is described as follows: Rodent pharmacokinetic study. The conditions noted are these: rat. It counts as in vivo, Male Wistar rats. Here is the method: Rodent Pharmacokinetic Study
Male Wistar rats (260±50 grams) were used as experimental animals. Animals were housed individually in polypropylene cage. Two days prior to study, male Wistar rats were anesthetized with isoflurane for surgical placement of jugular vein catheter. Rats were randomly divided for oral (3 mg/kg) and intravenous (1 mg/kg) dosing (n=3/group) and fasted overnight before oral dosing (p.o.). However, rats allocated to intravenous dosing food and water was provided ad libitum.
At pre-determined point, blood was collected through jugular vein and replenished with an equivalent volume of normal saline. Collected blood was transferred into a labeled eppendorf tube containing 10 μL of heparin as an anticoagulant. Typically blood samples were collected at following time points: 0.08, 0.25, 0.5, 1, 2, 4, 6, 8, and 24 hours post dose. Blood was centrifuged at 4000 rpm for 10 minutes. Plasma was separated and stored frozen at −80° C. until analysis. The concentrations of the test compounds were quantified in plasma by qualified LC-MS/MS method using suitable extraction technique. The test compounds were quantified in the calibration range around 1-1000 ng/mL in plasma. Study samples were analyzed using calibration samples in the batch and quality control samples spread across the batch.
Pharmacokinetic parameters Cmax, AUCt, T1/2, Clearance and Bioavailability (F) were calculated by non-compartmental model using standard non-compartmental model by using Phoenix WinNonlin 6.0.4 version Software package.

Setting [6] is: male, Wistar, plasma, intravenous (bolus), 1 mg/kg.
Where [7] appears, read: male, Wistar, plasma, oral (gavage), 3 mg/kg.

Consider `Cn1ccc2c(Cc3ccnc(F)c3)cc(C(=O)N[C@H]3CCCC[C@@H]3O)nc21` [Example 1, N-[(1S,2S)-2-Hydroxycyclohexyl]-4-(2-fluoropyridin-4-ylmethyl)-1-methyl-1H-pyrrolo[2,3-b]pyridine-6-carboxamide], for which the Inference result in series [1] is “Active”. In series [1] (choice trial 24 hours after T1), the “Exploration time mean ± S.E.M, Familiar object” value turned out to be 12.67 ± 0.95 s and the “Exploration time mean ± S.E.M, Novel object” value was 17.98 ± 1.77 s. Besides, the EC50 in series [2] amounted to 1.48 µM. Besides, the “Procognitive effect in object recognition task” value in series [3] was “Procognitive effects were observed”. For the same molecule, the Kp in series [4] amounted to 0.33 ± 0.02. In series [5] (setting [6]), this molecule showed an AUC(0-t) of 796 ± 41 ng·h/mL, a clearance of 34 ± 3 mL/min/kg and a half-life of 1.3 ± 0.3 h. In addition, in series [5] (setting [7]), the AUC(0-t) was determined as 875 ± 215 ng·h/mL, the Cmax came to 373 ± 53 ng/mL and the half-life was 1.3 ± 0.2 h. For the same molecule, the F in series [5] (oral (gavage) 3 mg/kg vs intravenous 1 mg/kg) was determined as 59 ± 14%.
